{"source": "patent EP0388528B1", "about": "“Carboximidamide derivatives” (KIRIN BEER KABUSHIKI KAISHA, priority 1988, dated 1990)", "key": {"[1]": {"tested_on": "spontaneous hypertensive rats (SHR)", "assay": "Hypotensive effect on spontaneous hypertensive rats (intravenously) (Referential Example 1)-3)", "assay_type": "in vivo", "details": "Rattus norvegicus, iv, anesthetized SHR, dose descending mean blood pressure by 20%; read-out: ED₂₀ (mg/kg, i.v.)", "experimental": "Rats were anesthetized with urethane-α-chloralose (1 g/kg - 25 mg/kg; intraperitoneally). Mean blood pressure was measured by a pressure transducer through a cannula inserted into the carotid artery. The compound was cumulatively administered every 30 minutes through the cannula inserted into the jagular vein. The change in blood pressure was expressed as percent of the blood pressure before the administration of the compound. And the ED₂₀ value, which was the dose required for descending blood pressure to an extent of 20%, was calculated from the dose-response curve."}, "[2]": {"tested_on": "spontaneous hypertensive rats (SHR)", "assay": "Hypotensive effect on spontaneous hypertensive rats (orally)", "assay_type": "in vivo", "details": "systolic pressure 2 hours after administration", "experimental": "Systolic pressure of the rats fasted for 24 hour was measured by using the tail cuff method before and 2 hours after administration of the compound. The compound was dissolved in a mixed solvent of polyethylene glycol 200 : physiological saline = 1:1. The control group was administered the solvent alone. The change in blood pressure was expressed as percent of the blood pressure before the administration of the compound in respective groups."}, "isolated rat heart": {"tested_on": "isolated rat heart", "assay": "Effect on isolated rat heart (Langendorff's method)", "details": "1 × 10⁻⁸ mol/min, mean ± S.D.", "experimental": "The effect of the compound of the present invention on heart of rats was examined by using the Langendorff's method [test compound: N-cyano-N′-(2-nitroxyethyl)-3-pyridinecarboximidamide (compound (13))]. Hearts were excised from male rats (weighing 250-350 g) and perfused at 80 cmH₂O in a Langendorff fashion. Krebs-Hensaleit bicarbonate solution (pH 7.4, 37°C) containing an 11 mM glucose which was oxygenated with 95% O₂- 5% CO₂ gas mixture was used as a perfusate. The left ventricular pressure was recorded by inserting a latex baloon into the left ventricle, and heart rate was determined from the pulse of it. Coronary perfusate flow was also measured with an electromagnetic flowmeter. The experiments were carried out by perfusing a perfusate containing the compound (13) for 10 minutes after an initial equilibration period for 30 minutes. As the control compound, nicorandil which has an effect opening potassium channel and is similar to the test compound in structure was used. The changes in the coronary perfusate flow and the cardiac function (heart rate × left ventricular pressure) caused by these compounds were expressed as percent changes from the preperfusion values of the compound (13) or nicorandil."}, "beagles": {"tested_on": "beagles", "assay": "Hemodynamic profile in beagles (intravenously)", "assay_type": "in vivo", "details": "peak percent change from pretreatment", "experimental": "Hemodynamic profile of the compound of the present invention was investigated in beagles anesthetized with pentobarbital (30 mg/kg, intravenously) [test compound: N-cyano-N′-(2-nitroxyethyl)-3-pyridinecarboximidamide (compound (13))]. The thorax was opened under artificial respiration. After administering heparin in an amount of 500 units/kg, a Moravitz's cannula was introduced into the coronary sinus via the right atrium. The coronary sinus outflow was returned to the right external jagular vein. The coronary sinus outflow was measured by an electromagnetic flowmeter (MFU-2100, manufactured by Nihon Kohden) connected to the Moravitz's cannula. A cannula was inserted into the aortic arch through the subclavian artery to measure aortic blood pressure. The aortic blood pressure was measured with a pressure transducer (Nihon Kohden, TP-200T). Heart rate was monitored with a heart rate counter with R waves of electrocardiogram. All parameters were recorded on a thermosensitive recorder (WT-685G, manufactured by Nihon Kohden).\nThe compound was administered through the cannula inserted into the right femoral vein. Nicorandil was used as a control. As for respective measurement items, peak changes were expressed as percent change from the pretreatment values of the compound (13) or nicorandil."}, "isolated heart of rats": {"tested_on": "isolated heart of rats", "assay": "Myocardiac injury induced by re-perfusion after ischemia (isolated heart of rats)", "details": "1×10⁻⁷ mole/min, after 30 minutes re-perfusion, mean ± SD", "experimental": "The cardiac muscle protecting effect of the compound of the present invention was tested by using the isolated heart of rats [test compound: N-cyano-N′-(2-nitroxyethyl)-3-pyridinecarboximidamide (compound (13))]. The Langendorff's method was used in the same manner as in the aforementioned Referential Example 1)-6. The isolated heart was perfused with a perfusate for 30 minutes and then with a perfusate containing the test compound for 10 minutes, and perfusion was stopped so that the heart was in the so-called \"ischemic state\". Pacing was performed during the ischemia. […] Parameters of cardiac function after the onset of re-perfusion was monitored for 30 minutes, and the heart was quickly freezed. The amount of ATP in the heart muscle was extracted with perchloric acid and determined by HPLC. Nicorandil was used as a control.\nThe recovery rate of the cardiac function (heart rate × left ventricular pressure) after onset of reperfusion was calculated based on the cardiac function prior to the perfusion of the compound (13) and nicorandil as 100%. The amount of ATP in the heart muscle was also determined."}, "male ddY mice": {"tested_on": "male ddY mice", "assay": "Effect on hypoxia (survival time in mice)", "assay_type": "in vivo", "experimental": "The effect of the compound of the present invention [test compound: N-cyano-N′-(2-nitroxyethyl)-3-pyridinecarboximidamide (compound (13))] on hypoxia was examined in male ddY mice (4 week old). Mice were exposed to a gas mixture of 96% N₂ - 4% O₂ that was streamed in a flow rate of 5 ℓ/min.\nThe time from the onset of the gas stream till the stop of respiration [survival time (sec)] was measured.\nThe test compound was orally administered in the dosage form of a 2% suspension in gum arabic 30 minutes before the onset of the gas streaming. The control group was administered a gum arabic suspension only."}, "[3]": {"assay": "Acute toxicity (oral administration)", "details": "mouse, in vivo, male ddY mice, read-out: LD₅₀", "experimental": "Using male ddY mice (4 week old), acute toxicity on the oral administration of the compound of the present invention was examined [test compound: N-cyano-N′-(2-nitroxyethyl)-3-pyridinecarboximidamide (compound (13))]. As a result, LD₅₀ was about 400 mg/kg."}}}
{"smiles": "N#CNC(=NCCO[N+](=O)[O-])c1cccnc1", "note": "[Compound (13), N-cyano-N'-(2-nitroxyethyl)-3-pyridinecarboximidamide]", "values": [{"measurement": "ED20", "setting": "[1]", "value": 0.01, "unit": "mg/kg"}, {"measurement": "Decreasing Rate of Blood Pressure (%)", "setting": "[2]; 0.3 mg/kg p.o.", "value": "6.76 ± 1.53", "unit": "%"}, {"measurement": "Decreasing Rate of Blood Pressure (%)", "setting": "[2]; 0.5 mg/kg p.o.", "value": "9.12 ± 2.41", "unit": "%"}, {"measurement": "Decreasing Rate of Blood Pressure (%)", "setting": "[2]; 1.0 mg/kg p.o.", "value": "27.31 ± 2.32", "unit": "%"}, {"measurement": "Decreasing Rate of Blood Pressure (%)", "setting": "[2]; 3.0 mg/kg p.o.", "value": "49.99 ± 2.48", "unit": "%"}, {"measurement": "Coronary Perfusate Flow (% change)", "setting": "isolated rat heart; perfusion 10 minutes", "value": "51.3±3.2", "unit": "% change"}, {"measurement": "Cardiac Function", "setting": "isolated rat heart; heart rate × left ventricular pressure, percent change from preperfusion", "value": "13.3±6.5", "unit": "%"}, {"measurement": "Coronary Blood Flow", "setting": "beagles; i.v. 3.0 µg/kg", "value": "16.4±1.8", "unit": "%"}, {"measurement": "Heart Rate", "setting": "beagles; i.v. 3.0 µg/kg", "value": "1.3±1.4", "unit": "%"}, {"measurement": "Mean Aortic Blood Pressure", "setting": "beagles; i.v. 3.0 µg/kg", "value": "-15.3±2.5", "unit": "%"}, {"measurement": "Coronary Blood Flow", "setting": "beagles; i.v. 10.0 µg/kg", "value": "96.0±17.6", "unit": "%"}, {"measurement": "Heart Rate", "setting": "beagles; i.v. 10.0 µg/kg", "value": "-5.9±2.8", "unit": "%"}, {"measurement": "Mean Aortic Blood Pressure", "setting": "beagles; i.v. 10.0 µg/kg", "value": "-38.5±3.1", "unit": "%"}, {"measurement": "Coronary Blood Flow", "setting": "beagles; i.v. 30.0 µg/kg", "value": "134.1±9.2", "unit": "%"}, {"measurement": "Heart Rate", "setting": "beagles; i.v. 30.0 µg/kg", "value": "-16.2±3.3", "unit": "%"}, {"measurement": "Mean Aortic Blood Pressure", "setting": "beagles; i.v. 30.0 µg/kg", "value": "-50.7±2.1", "unit": "%"}, {"measurement": "Amount of ATP in the heart muscle (µmole/g of dry weight)", "setting": "isolated heart of rats", "value": "11.12±1.12(6) µmole/g of dry weight"}, {"measurement": "Survival Time (sec) mean ± S.E.M.", "setting": "male ddY mice; 0.3 mg/kg orally 30 minutes before 96% N₂ - 4% O₂", "value": "130.27 ± 9.32", "unit": "s"}, {"measurement": "Survival Time (sec) mean ± S.E.M.", "setting": "male ddY mice; 1.0 mg/kg orally 30 minutes before 96% N₂ - 4% O₂", "value": "201.00 ± 13.40", "unit": "s"}, {"measurement": "Survival Time (sec) mean ± S.E.M.", "setting": "male ddY mice; 3.0 mg/kg orally 30 minutes before 96% N₂ - 4% O₂", "value": "523.15 ± 48.57", "unit": "s"}, {"measurement": "LD50", "setting": "[3]", "value": "~400", "unit": "mg/kg"}]}
